This note sets out measurements from publication PMC4619459, “Metabolism of β-valine via a CoA-dependent ammonia lyase pathway” (Applied Microbiology and Biotechnology, 2015).

What all share (assay type): biochemical
The target in assay [1] is T1, BvaB2-His (Pseudomonas sp. SBV1, UniProt A0A0C4USU5).
T1 sequence (A0A0C4USU5 1-266): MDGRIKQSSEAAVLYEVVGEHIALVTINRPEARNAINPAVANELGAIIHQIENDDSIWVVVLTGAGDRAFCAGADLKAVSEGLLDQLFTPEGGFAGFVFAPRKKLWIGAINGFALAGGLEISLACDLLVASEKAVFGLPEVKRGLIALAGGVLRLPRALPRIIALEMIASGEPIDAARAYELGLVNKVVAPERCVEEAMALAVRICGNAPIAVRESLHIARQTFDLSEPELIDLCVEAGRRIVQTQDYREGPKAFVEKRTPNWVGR
As to the kind of experiment: UPLC-MS (m/z […]) and HPLC. To be noted: substrate made in situ by BvaA-His, not purified; 50 mM HEPES, 150 mM NaCl, 5 mM MgCl2, pH 8.

For assay [2], the target named is T2, BvaB1-His (Pseudomonas sp. SBV1, UniProt A0A0C4UTI5).
T2 sequence (A0A0C4UTI5 1-253): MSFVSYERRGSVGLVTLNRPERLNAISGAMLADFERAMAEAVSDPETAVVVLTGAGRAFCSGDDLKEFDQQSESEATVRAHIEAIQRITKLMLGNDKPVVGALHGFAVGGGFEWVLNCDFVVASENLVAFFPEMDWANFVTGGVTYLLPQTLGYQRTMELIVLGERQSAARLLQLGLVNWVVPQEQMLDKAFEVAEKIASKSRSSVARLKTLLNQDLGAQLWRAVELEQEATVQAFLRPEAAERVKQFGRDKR
Description: UPLC-MS (m/z […]) and HPLC. To be noted: substrate made in situ by BvaA-His, not purified; 50 mM HEPES, 150 mM NaCl, 5 mM MgCl2, pH 8.

In assay [3] the target is T3, BvaA-His (Pseudomonas sp. SBV1, UniProt A0A0C4UT64). Description: HPLC of AMP formation. Particulars: 2.5 mM β-valine, 2.5 mM CoA, 5 mM MgCl2, 50 mM HEPES, 150 mM NaCl, pH 8, 30 °C.
In assay [4] the target is T3, BvaA-His. As to the kind of experiment: UPLC-MS of CoA adduct; HPLC of AMP formation. Particulars: 5 mM ATP, 2.5 mM CoA, 5 mM MgCl2, 50 mM HEPES, 150 mM NaCl, pH 8, 30 °C.
Assay [5] concerns the target T1, BvaB2-His. As to the kind of experiment: HPLC of substrate depletion; UPLC-MS. To be noted: substrate made in situ by BvaA-His, not purified; 50 mM HEPES, 150 mM NaCl, 5 mM MgCl2, pH 8.
The target in assay [6] is T2, BvaB1-His. As to the kind of experiment: HPLC of substrate depletion; UPLC-MS. Particulars: substrate made in situ by BvaA-His, not purified; 50 mM HEPES, 150 mM NaCl, 5 mM MgCl2, pH 8.

Molecules are shown by their SMILES.

T3 sequence (A0A0C4UT64 entry or part of it): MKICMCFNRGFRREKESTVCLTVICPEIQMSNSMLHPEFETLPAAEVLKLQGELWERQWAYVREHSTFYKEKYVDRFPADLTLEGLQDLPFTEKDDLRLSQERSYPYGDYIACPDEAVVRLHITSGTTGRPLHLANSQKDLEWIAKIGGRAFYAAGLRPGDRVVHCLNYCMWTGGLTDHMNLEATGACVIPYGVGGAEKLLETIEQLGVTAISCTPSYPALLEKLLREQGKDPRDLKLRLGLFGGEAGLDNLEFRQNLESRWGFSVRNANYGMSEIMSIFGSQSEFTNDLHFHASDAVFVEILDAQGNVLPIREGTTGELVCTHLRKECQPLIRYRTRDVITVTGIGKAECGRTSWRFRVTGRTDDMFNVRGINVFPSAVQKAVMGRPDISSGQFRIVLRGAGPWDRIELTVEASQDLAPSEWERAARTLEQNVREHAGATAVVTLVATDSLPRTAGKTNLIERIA

Take `CC(C)=CC(=O)SCCNC(=O)CCNC(=O)[C@H](O)C(C)(C)COP(=O)(O)OP(=O)(O)OC[C@H]1O[C@@H](n2cnc3c(N)ncnc32)[C@H](O)[C@@H]1OP(=O)(O)O` [3-methyl-crotonyl-CoA]: the “UPLC-MS (m/z 849) and HPLC” value in assay [1] and in assay [2] was “This parent ion was observed in a mixture containing either BvaB1-His or BvaB2-His” each time.
In the case of `Nc1ncnc2c1ncn2[C@@H]1O[C@H](COP(=O)(O)OP(=O)(O)OP(=O)(O)O)[C@@H](O)[C@H]1O` [ATP], the “HPLC of AMP formation” value in assay [3] was “able to convert β-valine to β-valinyl-CoA in an ATP- and CoA-dependent manner”.
As for `CC(C)(N)CC(=O)O` [β-valine], the “UPLC-MS of CoA adduct; HPLC of AMP formation” value in assay [4] was “both the β-valinyl-CoA and the AMP levels increased in time”.
For `CC(C)(N)CC(=O)SCCNC(=O)CCNC(=O)[C@H](O)C(C)(C)COP(=O)(O)OP(=O)(O)OC[C@H]1O[C@@H](n2cnc3c(N)ncnc32)[C@H](O)[C@@H]1OP(=O)(O)O` [β-valinyl-CoA], the “HPLC of substrate depletion; UPLC-MS” value in assay [5] and in assay [6] was “both expected β-valinyl-CoA ammonia lyases are able to convert β-valinyl-CoA to 3-methyl-crotonyl-CoA” throughout.
